# Results reported in patent US11807644B2 (PMV Pharmaceuticals, Inc., priority 2020, dated 2023).
# Target: T1, recombinant His-tag Y220C p53 DBD protein (Homo sapiens, UniProt P04637, Y220C)
# T1 construct: recombinant His-tag Y220C p53 DBD protein (amino acids #˜94-312)
# Test: In vitro DNA binding activity assay (TR-FRET): binding of His-tag Y220C p53 DBD to biotin-labeled consensus DNA
# Assay type: biochemical
# Details: SC150 = concentration to increase DNA binding by […], His-tag Y220C p53 DBD, biotin-labeled consensus DNA
row,Structure (SMILES),Y220C SC150 (μM)
1,"CN1CC[C@@H](Nc2cccc3c2cc(-c2noc(CNC(=O)c4cnn(C5CCOC5)c4)n2)n3CC(F)(F)F)[C@@H](F)C1 (stereo partly drawn) [Compound 321B, N-{[3-(4-{[(3S,4R)-3-fluoro-1-methylpiperidin-4-yl]amino}-1-(2,2,2-trifluoroethyl)-1H-indol-2-yl)-1,2,4-oxadiazol-5-yl]methyl}-1-(oxolan-3-yl)-1H-pyrazole-4-carboxamide]",* (* = 0 μM ≤ SC150 < 0.1 μM)
2,"CN1CC[C@@H](Nc2cccc3c2cc(-c2noc(CNC(=O)c4ccn(CC5CC5)c4)n2)n3CC(F)(F)F)[C@@H](F)C1 [Compound 241B, 1-(cyclopropylmethyl)-N-{[3-(4-{[(3S,4R)-3-fluoro-1-methylpiperidin-4-yl]amino}-1-(2,2,2-trifluoroethyl)-1H-indol-2-yl)-1,2,4-oxadiazol-5-yl]methyl}-1H-pyrrole-3-carboxamide]",* (* = 0 μM ≤ SC150 < 0.1 μM)
3,"CO[C@H]1CCN(c2nc(C(=O)NCc3nc(-c4cc5c(N[C@@H]6CCN(C)C[C@@H]6F)cccc5n4CC(F)(F)F)no3)cs2)C1 [Compound 523B, N-{[3-(4-{[(3S,4R)-3-fluoro-1-methylpiperidin-4-yl]amino}-1-(2,2,2-trifluoroethyl)-1H-indol-2-yl)-1,2,4-oxadiazol-5-yl]methyl}-2-[(3S)-3-methoxypyrrolidin-1-yl]-1,3-thiazole-4-carboxamide]",* (* = 0 μM ≤ SC150 < 0.1 μM)
4,"CCC(C)(C)n1ccc(C(=O)NCc2nc(-c3cc4c(N[C@@H]5CCN(C)C[C@@H]5F)cccc4n3CC(F)(F)F)no2)c1 [Compound 427B, N-{[3-(4-{[(3S,4R)-3-fluoro-1-methylpiperidin-4-yl]amino}-1-(2,2,2-trifluoroethyl)-1H-indol-2-yl)-1,2,4-oxadiazol-5-yl]methyl}-1-(2-methylbutan-2-yl)-1H-pyrrole-3-carboxamide]",* (* = 0 μM ≤ SC150 < 0.1 μM)
5,"Cn1ccc(C(=O)NCc2nc(-c3cc4c(N[C@H]5CCN(C(C)(C)C)C[C@H]5F)cccc4n3CC(F)(F)F)no2)c1 [Compound 398B, N-{[3-(4-{[(3R,4S)-1-tert-butyl-3-fluoropiperidin-4-yl]amino}-1-(2,2,2-trifluoroethyl)-1H-indol-2-yl)-1,2,4-oxadiazol-5-yl]methyl}-1-methyl-1H-pyrrole-3-carboxamide]",* (* = 0 μM ≤ SC150 < 0.1 μM)
6,"Cn1ccc(C(=O)NCc2nc(-c3cc4c(N[C@@H]5CCN(C(C)(C)C)C[C@H]5F)cccc4n3CC(F)(F)F)no2)c1 (racemic) [Compound 399B, N-{[3-(4-{[(3R,4R)-1-tert-butyl-3-fluoropiperidin-4-yl]amino}-1-(2,2,2-trifluoroethyl)-1H-indol-2-yl)-1,2,4-oxadiazol-5-yl]methyl}-1-methyl-1H-pyrrole-3-carboxamide]",* (* = 0 μM ≤ SC150 < 0.1 μM)
7,"CN1CC[C@@H](Nc2cccc3c2cc(-c2nnc(CNC(=O)C4COC4)s2)n3CC(F)(F)F)[C@@H](F)C1 (racemic) [Compound 36B, (+/−)-N-{[5-(4-{[(3R,4S)-3-fluoro-1-methylpiperidin-4-yl]amino}-1-(2,2,2-trifluoroethyl)-1H-indol-2-yl)-1,3,4-thiadiazol-2-yl]methyl}oxetane-3-carboxamide]",** (** = 0.1 μM ≤ SC150 < 0.5 μM)
8,"CC(C)n1ccc(C(=O)NCc2nc(-c3cc4c(N[C@@H]5CCN(C)C[C@@H]5F)cccc4n3CC(F)(F)F)no2)c1 [Compound 199B, N-{[3-(4-{[(3S,4R)-3-fluoro-1-methylpiperidin-4-yl]amino}-1-(2,2,2-trifluoroethyl)-1H-indol-2-yl)-1,2,4-oxadiazol-5-yl]methyl}-1-(propan-2-yl)-1H-pyrrole-3-carboxamide]",* (* = 0 μM ≤ SC150 < 0.1 μM)
9,"CN1CC[C@@H](Nc2cccc3c2cc(-c2noc(CNC(=O)c4csc(C(C)(C)CO)n4)n2)n3CC(F)(F)F)[C@@H](F)C1 [Compound 532B, N-{[3-(4-{[(3S,4R)-3-fluoro-1-methylpiperidin-4-yl]amino}-1-(2,2,2-trifluoroethyl)-1H-indol-2-yl)-1,2,4-oxadiazol-5-yl]methyl}-2-(1-hydroxy-2-methylpropan-2-yl)-1,3-thiazole-4-carboxamide]",* (* = 0 μM ≤ SC150 < 0.1 μM)
10,"CN1CC[C@@H](Nc2cccc3c2cc(-c2ncc(CNC(=O)C4CC4)s2)n3CC(F)(F)F)[C@@H](F)C1 (racemic) [Compound 95B, (+/−)-N-{[2-(4-{[(3R,4S)-3-fluoro-1-methylpiperidin-4-yl]amino}-1-(2,2,2-trifluoroethyl)-1H-indol-2-yl)-1,3-thiazol-5-yl]methyl}cyclopropanecarboxamide]",* (* = 0 μM ≤ SC150 < 0.1 μM)
11,"CCN1CC[C@H](Nc2cccc3c2cc(-c2noc(CNC(=O)c4ccn(C(C)(C)C)c4)n2)n3CC(F)(F)F)[C@H](F)C1 [Compound 299B, 1-tert-butyl-N-{[3-(4-{[(3R,4S)-1-ethyl-3-fluoropiperidin-4-yl]amino}-1-(2,2,2-trifluoroethyl)-1H-indol-2-yl)-1,2,4-oxadiazol-5-yl]methyl}-1H-pyrrole-3-carboxamide]",* (* = 0 μM ≤ SC150 < 0.1 μM)
12,"CN1CC[C@@H](Nc2cccc3c2cc(-c2noc(CNc4nccc5sccc45)n2)n3CC(F)(F)F)[C@@H](F)C1 [Compound 457B, N-[(3S,4R)-3-fluoro-1-methylpiperidin-4-yl]-2-{5-[({thieno[3,2-c]pyridin-4-yl}amino)methyl]-1,2,4-oxadiazol-3-yl}-1-(2,2,2-trifluoroethyl)-1H-indol-4-amine]",* (* = 0 μM ≤ SC150 < 0.1 μM)
13,"CN1CCC(Nc2cccc3c2cc(-c2nc(CNc4ccc(S(C)(=O)=O)cc4)no2)n3CC(F)(F)F)CC1 [Compound 136B, N-(1-methylpiperidin-4-yl)-2-(3-(((4-(methylsulfonyl)phenyl)amino)methyl)-1,2,4-oxadiazol-5-yl)-1-(2,2,2-trifluoroethyl)-1H-indol-4-amine]",* (* = 0 μM ≤ SC150 < 0.1 μM)
14,"CN1CC[C@@H](Nc2cccc3c2cc(-c2noc(CNC(=O)c4csc(C(C)(C)C)n4)n2)n3CC(F)(F)F)[C@@H](F)C1 [Compound 438B, 2-tert-butyl-N-{[3-(4-{[(3S,4R)-3-fluoro-1-methylpiperidin-4-yl]amino}-1-(2,2,2-trifluoroethyl)-1H-indol-2-yl)-1,2,4-oxadiazol-5-yl]methyl}-1,3-thiazole-4-carboxamide]",* (* = 0 μM ≤ SC150 < 0.1 μM)
15,"CN1CCC(Nc2cccc3c2cc(-c2ncc(CNC(=O)c4ccccc4)s2)n3CC(F)(F)F)CC1 [Compound 92B, N-[(2-{4-[(1-methylpiperidin-4-yl)amino]-1-(2,2,2-trifluoroethyl)-1H-indol-2-yl}-1,3-thiazol-5-yl)methyl]benzamide]",** (** = 0.1 μM ≤ SC150 < 0.5 μM)
16,"CC(C)n1cc(C(=O)NCc2nc(-c3cc4c(N[C@@H]5CCN(C)C[C@@H]5F)cccc4n3CC(F)(F)F)no2)cn1 [Compound 255B, N-{[3-(4-{[(3S,4R)-3-fluoro-1-methylpiperidin-4-yl]amino}-1-(2,2,2-trifluoroethyl)-1H-indol-2-yl)-1,2,4-oxadiazol-5-yl]methyl}-1-(propan-2-yl)-1H-pyrazole-4-carboxamide]",* (* = 0 μM ≤ SC150 < 0.1 μM)
17,CN1CCC(n2ccc(C(=O)NCc3nc(-c4cc5c(N[C@@H]6CCN(C)C[C@@H]6F)cccc5n4CC(F)(F)F)no3)c2)C1 (some centres unmarked) [Compound 351B],* (* = 0 μM ≤ SC150 < 0.1 μM)
18,"CN1CC[C@@H](Nc2cccc3c2cc(-c2noc(CNc4nccc5c4ccn5C)n2)n3CC(F)(F)F)[C@@H](F)C1 [Compound 454B, N-[(3S,4R)-3-fluoro-1-methylpiperidin-4-yl]-2-{5-[({1-methyl-1H-pyrrolo[3,2-c]pyridin-4-yl}amino)methyl]-1,2,4-oxadiazol-3-yl}-1-(2,2,2-trifluoroethyl)-1H-indol-4-amine]",* (* = 0 μM ≤ SC150 < 0.1 μM)
19,"CN1CCC(Nc2cccc3c2cc(-c2nnc(CNc4ccc(S(C)(=O)=O)cc4)s2)n3CC(F)(F)F)CC1 [Compound 24B, 2-(5-{[(4-methanesulfonylphenyl)amino]methyl}-1,3,4-thiadiazol-2-yl)-N-(1-methylpiperidin-4-yl)-1-(2,2,2-trifluoroethyl)-1H-indol-4-amine]",** (** = 0.1 μM ≤ SC150 < 0.5 μM)
20,"CN1CC[C@@H](Nc2cccc3c2cc(-c2noc(CNC(=O)[C@@H]4C[C@H]4c4cccc(F)c4)n2)n3CC(F)(F)F)[C@@H](F)C1 [Compound 235B, (1R,2R)-N-{[3-(4-{[(3S,4R)-3-fluoro-1-methylpiperidin-4-yl]amino}-1-(2,2,2-trifluoroethyl)-1H-indol-2-yl)-1,2,4-oxadiazol-5-yl]methyl}-2-(3-fluorophenyl)cyclopropane-1-carboxamide]",* (* = 0 μM ≤ SC150 < 0.1 μM)

# Same assay, conditions: concentration to increase DNA binding by […], incubated at either 27° C. or 29° C. for 60 min
row,Structure (SMILES),SC150 (μM)
1,"CNC(=O)c1ccc(-c2cc3c(NC4CCS(=O)(=O)CC4)cccc3n2CC(F)(F)F)cc1 [Compound 5A, 4-{4-[(1,1-dioxo-1λ^6-thian-4-yl)amino]-1-(2,2,2-trifluoroethyl)-1H-indol-2-yl}-N-methylbenzamide]",++++ (++++ = 10 μM ≤ SC150 < 35 μM)
2,"COC(=O)Nc1cccc(-c2cc3c(NC4CCS(=O)(=O)CC4)cccc3n2CC(F)(F)F)c1 [Compound 25A, methyl N-(3-{4-[(1,1-dioxo-1λ^6-thian-4-yl)amino]-1-(2,2,2-trifluoroethyl)-1H-indol-2-yl}phenyl)carbamate]",+++ (+++ = 5 μM ≤ SC150 < 10 μM)
3,"COc1ccc(NCc2ccc(-c3cc4c(NC5CCN(C6CCOCC6)CC5)cccc4n3CC(F)(F)F)cc2)cc1 [Compound 33A, 2-(4-{[(4-methoxyphenyl)amino]methyl}phenyl)-N-[1-(oxan-4-yl)piperidin-4-yl]-1-(2,2,2-trifluoroethyl)-1H-indol-4-amine]",++ (++ = 2 μM ≤ SC150 < 5 μM)
